Test results published in publication PMC5919610, “Structural basis of product inhibition by arabinose and xylose of the thermostable GH43 β-1,4-xylosidase from Geobacillus thermoleovorans IT-08” (PLoS ONE, 2018).

Target: T1, Xyl (GH43 β-1,4-xylosidase from Geobacillus thermoleovorans IT-08) (Geobacillus thermoleovorans, UniProt Q2I2N4)
T1 construct: complete Xyl (511 residues; 61,533 Da); E. coli BL21 (DE3), plasmid pET-xyl; one molecule per asymmetric unit, probably dimer in solution (PISA)
T1 sequence (Q2I2N4 1-511): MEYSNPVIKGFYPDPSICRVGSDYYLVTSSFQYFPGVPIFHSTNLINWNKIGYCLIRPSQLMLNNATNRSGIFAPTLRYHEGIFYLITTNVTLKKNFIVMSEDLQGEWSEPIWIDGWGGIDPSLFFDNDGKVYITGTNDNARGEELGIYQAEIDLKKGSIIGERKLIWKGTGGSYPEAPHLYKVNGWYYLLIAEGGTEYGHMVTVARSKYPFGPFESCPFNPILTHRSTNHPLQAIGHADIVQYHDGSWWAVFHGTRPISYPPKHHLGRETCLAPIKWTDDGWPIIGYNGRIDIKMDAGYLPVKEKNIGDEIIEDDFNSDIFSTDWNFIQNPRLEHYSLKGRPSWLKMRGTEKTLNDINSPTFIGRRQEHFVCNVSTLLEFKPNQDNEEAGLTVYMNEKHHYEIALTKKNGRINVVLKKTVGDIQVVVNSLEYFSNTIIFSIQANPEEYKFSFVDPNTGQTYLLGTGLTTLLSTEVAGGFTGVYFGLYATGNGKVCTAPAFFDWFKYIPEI
Assay: X-ray crystal structure of soaked crystal
Format: binding
Settings: 500 mM L-arabinose soak, 10 min, pH 7.0, 283 K; 2.10 Å; active site subsite -1; same site in ternary complex with D-xylose (5Z5I, 1.70 Å)

With `OC[C@@H]1O[C@H](O)[C@H](O)[C@H]1O` [L-arabinose] as the compound, how does the “X-ray crystal structure of soaked crystal” value read?
Its value is “arabinose was only found in subsite -1”.
